The supplement of paper PMC11061612

Key:
Assay in all cases: combination Emax (second highest fraction inhibited in the dose matrix, 72 h); higher = more inhibition; extreme values may be limits of the assay
[1] = system: LU-99A (Non-Small Cell Lung Carcinoma)
Outline: (§1)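 Cell lines grown in DMEM/F12 or RPMI with 10% FBS were plated in 1536-well plates and held 24 hours at 37°C, 5% CO2 before 72 hours of exposure to two-drug dose matrices, with DMSO typically at 0.2%. CellTiter-Glo 2.0 luminescence gave viability, which was converted to inhibition. Vehicle wells were set to 0 and blank wells to 1. Combination Emax is the second-highest inhibition in the matrix, and Bliss excess is the observed combination effect minus the expected EA + EB − EA·EB, where EA and EB are the single-agent effects.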

[2] = system: TGBC24TKB (Biliary Tract Carcinoma)
Outline: as §1

SN12C (Kidney Carcinoma) = system: SN12C (Kidney Carcinoma)
Outline: as §1

[3] = system: CFPAC-1 (Pancreatic Carcinoma)
Outline: as §1

[4] = system: NCI-H1299 (Non-Small Cell Lung Carcinoma)
Outline: as §1

[5] = system: MDA-MB-231 (Breast Carcinoma)
Outline: as §1

[6] = system: SW1088 (Low Grade Glioma)
Outline: as §1

[7] = system: COR-L23 (Non-Small Cell Lung Carcinoma)
Outline: as §1

[8] = system: NCI-H1781 (Lung Adenocarcinoma)
Outline: as §1

[9] = system: 697 (B-Lymphoblastic Leukemia)
Outline: as §1

[10] = system: MFH-ino (Other Solid Carcinomas)
Outline: as §1

[11] = system: C3A (Hepatocellular Carcinoma)
Outline: as §1

SK-N-FI (Neuroblastoma) = system: SK-N-FI (Neuroblastoma)
Outline: as §1

J82 (Bladder Carcinoma) = system: J82 (Bladder Carcinoma)
Outline: as §1

[12] = system: IHH-4 (Thyroid Gland Carcinoma)
Outline: as §1

[13] = system: NALM-6 (B-Lymphoblastic Leukemia)
Outline: as §1

[14] = system: OCI-AML2 (Acute Myeloid Leukemia)
Outline: as §1

[15] = system: DMS-273 (Small Cell Lung Carcinoma)
Outline: as §1

[16] = system: HCC2157 (Breast Carcinoma)
Outline: as §1

[17] = system: SW1990 (Pancreatic Carcinoma)
Outline: as §1

Row | SMILES | combination Emax [1] | combination Emax [2] | combination Emax (SN12C (Kidney Carcinoma)) | combination Emax [3] | combination Emax [4] | combination Emax [5] | combination Emax [6] | combination Emax [7] | combination Emax [8] | combination Emax [9] | combination Emax [10] | combination Emax [11] | combination Emax (SK-N-FI (Neuroblastoma)) | combination Emax (J82 (Bladder Carcinoma)) | combination Emax [12] | combination Emax [13] | combination Emax [14] | combination Emax [15] | combination Emax [16] | combination Emax [17]
1 | Cn1cnc2c(F)c(Nc3ccc(Br)cc3Cl)c(C(=O)NOCCO)cc21 [Selumetinib] + CC(C)n1c(=O)n(C)c2cnc3cc(F)c(-c4ccc(OCCCN5CCCCC5)nc4)cc3c21 [AZD1390] (first compound max 10 µM, 7x7, partner max 0.3 µM) | 0.358 | 0.828 | 0.237 | 0.202 | 0.23 | 0.501 | 0.14 | 0.268 | 0.218 | 0.373 | 0.281 | 0.412 | 0.435 | 0.787 | 0.436 | 0.205 | 0.993 | 0.232 | 0.238 | 0.202
2 | NC1(C(=O)N[C@@H](CCO)c2ccc(Cl)cc2)CCN(c2ncnc3[nH]ccc23)CC1 [Capivasertib] + CCN(CCO)CCCOc1ccc2c(Nc3cc(CC(=O)Nc4cccc(F)c4)[nH]n3)ncnc2c1 [AZD2811] (first compound max 10 µM, 7x7, partner max 1 µM) | 0.559 | 0.58 | 0.27 | 0.319 | 0.364 | 0.349 | 0.642 | 0.474 | 0.799 | 1 | 0.318 | 0.307 | 0.396 | 0.482 | 0.618 | 0.907 | 0.904 | 0.906 | 1 | 0.136
3 | NC1(C(=O)N[C@@H](CCO)c2ccc(Cl)cc2)CCN(c2ncnc3[nH]ccc23)CC1 [Capivasertib] + CC(C)n1c(=O)n(C)c2cnc3cc(F)c(-c4ccc(OCCCN5CCCCC5)nc4)cc3c21 [AZD1390] (first compound max 10 µM, 7x7, partner max 0.3 µM) | 0.407 | 0.25 | 0.205 | 0.235 | 0.254 | 0.334 | 0.624 | 0.37 | 0.485 | 0.59 | 0.28 | 0.255 | 0.361 | 0.392 | 0.203 | 0.675 | 0.586 | 0.71 | 0.999 | 0.143
4 | CN(CCO)CC[C@H](CSc1ccccc1)Nc1ccc(S(=O)(=O)NC(=O)c2ccc(N3CCC([C@@H](O)c4ccccc4-c4ccc(Cl)cc4)CC3)cc2)cc1S(=O)(=O)C(F)(F)F [AZD4320] + CCN(CCO)CCCOc1ccc2c(Nc3cc(CC(=O)Nc4cccc(F)c4)[nH]n3)ncnc2c1 [AZD2811] (first compound max 1 µM, 7x7, partner max 1 µM) | 0.701 | 0.822 | 0.169 | 0.115 | 0.228 | 0.813 | 0.306 | 0.15 | 0.741 | 1 | 0.102 | 0.22 | 0.206 | 0.126 | 0.282 | 0.98 | 1 | 0.766 | 0.979 | 0.183
5 | COc1cccc(OCCCN)c1-c1cc(Nc2cnc(C#N)cn2)n[nH]1 [Prexasertib] + CN(C)CCCOc1ccc(-c2ccc3ncc4c(c3c2)n(C2CCOCC2)c(=O)n4C)cn1 [AZD0156] (first compound max 1 µM, 7x7, partner max 1 µM) | 0.823 | 0.863 | 0.342 | 0.618 | 0.747 | 0.743 | 0.797 | 0.683 | 0.45 | 1 | 0.394 | 0.613 | 0.908 | 0.407 | 0.901 | 0.923 | 1 | 0.923 | 0.976 | 0.705
6 | CC(=O)c1c(C)c2cnc(Nc3ccc(N4CCNCC4)cn3)nc2n(C2CCCC2)c1=O [Palbociclib] + Cc1c2c(nn1C)CSCc1cc(n(C)n1)CSc1cc(c3ccccc3c1)OCCCc1c(C(=O)O)n(C)c3c-2c(Cl)ccc13 [AZD5991] (first compound max 10 µM, 7x7, partner max 1 µM) | 0.346 | 0.585 | 0.166 | 0.375 | 0.478 | 0.455 | 0.364 | 0.203 | 0.403 | 1 | 0.382 | 0.592 | 0.557 | 0.25 | 0.411 | 0.846 | 0.955 | 0.94 | 1 | 0.204
7 | COc1cccc(OCCCN)c1-c1cc(Nc2cnc(C#N)cn2)n[nH]1 [Prexasertib] + C[C@@H]1COCCN1C2=NC(=NC(=C2)C3(CC3)[S@](=N)(=O)C)C4=C5C=CNC5=NC=C4 [AZD6738] (first compound max 1 µM, 7x7, partner max 10 µM) | 0.767 | 0.918 | 0.313 | 0.643 | 0.732 | 0.705 | 0.762 | 0.685 | 0.486 | 1 | 0.572 | 0.528 | 0.915 | 0.522 | 0.862 | 0.943 | 1 | 0.916 | 0.971 | 0.695
8 | C[C@@H](c1ccc2nccn2c1)n1nnc2ncc(-c3cnn(C)c3)nc21 [Savolitinib] + Cc1c2c(nn1C)CSCc1cc(n(C)n1)CSc1cc(c3ccccc3c1)OCCCc1c(C(=O)O)n(C)c3c-2c(Cl)ccc13 [AZD5991] (first compound max 1 µM, 7x7, partner max 1 µM) | 0.134 | 0.182 | 0.197 | 0.115 | 0.151 | 0.284 | 0.261 | 0.142 | 0.32 | 1 | 0.207 | 0.195 | 0.24 | 0.205 | 0.0909 | 0.226 | 0.88 | 0.933 | 0.978 | 0.127
9 | COc1cccc(OCCCN)c1-c1cc(Nc2cnc(C#N)cn2)n[nH]1 [Prexasertib] + O=C(c1cc(Cc2n[nH]c(=O)c3ccccc23)ccc1F)N1CCN(C(=O)C2CC2)CC1 [Olaparib] (first compound max 1 µM, 7x7, partner max 10 µM) | 0.765 | 0.835 | 0.387 | 0.671 | 0.694 | 0.639 | 0.792 | 0.657 | 0.631 | 1 | 0.45 | 0.53 | 0.889 | 0.462 | 0.789 | 0.96 | 1 | 0.919 | 0.967 | 0.696
10 | Cc1c2c(nn1C)CSCc1cc(n(C)n1)CSc1cc(c3ccccc3c1)OCCCc1c(C(=O)O)n(C)c3c-2c(Cl)ccc13 [AZD5991] + C[C@@H]1COCCN1C2=NC(=NC(=C2)C3(CC3)[S@](=N)(=O)C)C4=C5C=CNC5=NC=C4 [AZD6738] (first compound max 1 µM, 7x7, partner max 10 µM) | 0.572 | 0.672 | 0.228 | 0.555 | 0.71 | 0.546 | 0.565 | 0.57 | 0.752 | 1 | 0.524 | 0.437 | 0.815 | 0.389 | 0.709 | 0.895 | 1 | 0.98 | 0.998 | 0.491
11 | Cc1cc2ncnn2cc1Nc1ncc2c(n1)n(C1CCOCC1)c(=O)n2C [AZD7648] + CCN(CCO)CCCOc1ccc2c(Nc3cc(CC(=O)Nc4cccc(F)c4)[nH]n3)ncnc2c1 [AZD2811] (first compound max 10 µM, 7x7, partner max 1 µM) | 0.53 | 0.566 | 0.262 | 0.281 | 0.37 | 0.477 | 0.686 | 0.0476 | 0.671 | 1 | 0.415 | 0.269 | 0.274 | 0.126 | 0.454 | 0.771 | 0.702 | 0.82 | 0.783 | 0.201
12 | Cc1c2c(nn1C)CSCc1cc(n(C)n1)CSc1cc(c3ccccc3c1)OCCCc1c(C(=O)O)n(C)c3c-2c(Cl)ccc13 [AZD5991] + Cn1cnc2c(F)c(Nc3ccc(Br)cc3Cl)c(C(=O)NOCCO)cc21 [Selumetinib] (first compound max 1 µM, 7x7, partner max 3 µM) | 0.379 | 0.418 | 0.246 | 0.322 | 0.3 | 0.4 | 0.229 | 0.31 | 0.492 | 1 | 0.358 | 0.487 | 0.565 | 0.197 | 0.385 | 0.369 | 1 | 0.987 | 0.982 | 0.41
13 | COc1cccc(OCCCN)c1-c1cc(Nc2cnc(C#N)cn2)n[nH]1 [Prexasertib] + Cc1cc2ncnn2cc1Nc1ncc2c(n1)n(C1CCOCC1)c(=O)n2C [AZD7648] (first compound max 1 µM, 7x7, partner max 10 µM) | 0.804 | 0.827 | 0.387 | 0.692 | 0.711 | 0.696 | 0.762 | 0.711 | 0.468 | 1 | 0.464 | 0.611 | 0.915 | 0.377 | 0.947 | 0.943 | 1 | 0.909 | 0.958 | 0.703
